The values that follow come from US20240415967A1, “DEGRADABLE NEAR-INFRARED PHOTOSENSITIZERS, PREPARATION METHODS, APPLICATIONS THEREOF” (BEIJING INSTITUTE OF COLLABORATIVE INNOVATION, priority 2021, published 2024).

The nature of data set [1]: UV-visible absorption and emission spectrum scanning (photophysical property). Format: physicochemical. The settings on record: light excitation, FIG. 8. The procedure:
A UV-visible absorption spectrum scanning and an emission spectrum scanning were performed on the target product prepared in Embodiment 3, and the scanning results are shown in FIGS. 7 and 8. […] Therefore, the target product may include a deep tissue penetration depth in photodynamic therapy or in vivo fluorescence imaging.

The nature of data set [2]: Detection of superoxide anion free radicals with dihydroethidium (DHE) probe under irradiation. Format: physicochemical. The following applies: water solution 10 μM, air atmosphere, 700 nm LED 1.25 mW/cm^2. Here is the method:
Under an air atmosphere, dihydroethidium (DHE) was added to a water solution (10 μM) of the target product prepared in Embodiment 3 as a probe of superoxide anion free radicals, and an irradiation condition was a 700 nm light-emitting diode lamp of 1.25 mW/cm^2, a fluorescence of ethidium oxide generated by an oxidation of the DHE by the superoxide radicals was detected, and a fluorescence intensity enhanced with the increase of an irradiation time.

Data set [3] in a line: Detection of singlet oxygen with 1,3-diphenylisobenzofuran (DPBF) capture spectrophotometry. Type of data set: physicochemical. The following applies: DPBF absorbance at 416 nm, 700 nm LED 1.25 mW/cm^2. An excerpt: A phosphorescence emission of singlet oxygen was easily quenched by water molecules, and the singlet oxygen generated by the target product was detected by using chemical capture spectrophotometry. 1,3-diphenylisobenzofuran (DPBF) was one of the most commonly used singlet oxygen capture agents, and 1,3-diphenylisobenzofuran reacted with the singlet oxygen rapidly to generate a colorless substance, and a content of the singlet oxygen may be reflected by detecting a variation of an absorbance of the 1,3-diphenylisobenzofuran (DPBF) at a characteristic absorption peak (416 nm) using the UV-visible absorption spectrum. An irradiation condition was a 700 nm light-emitting diode (LED) lamp of 1.25 mW/cm^2, a characteristic absorption of the 1,3-diphenylisobenzofuran (DPBF) at the characteristic absorption peak of 416 nm was gradually weakened.

Data set [4] is described as follows: Monitoring of self-degradation / photodegradation of the photosensitizer in solution (UV-vis, emission, HPLC). Format: physicochemical. The procedure:
In the test of Embodiment 7, an irradiation condition was the 700 nm light-emitting diode lamp of 1.25 mW/cm^2 for 0 min-2 min, the characteristic absorption of 1,3-diphenylisobenzofuran (DPBF) at the characteristic absorption peak of 416 nm was gradually weakened.
The target product obtained in Embodiment 3 was placed under a light-emitting diode lamp for irradiation, and an irradiation condition was 700 nm of 10 mW/cm^2, and the UV-visible absorption spectrum and an emission spectrum of the target product were recorded during irradiation.
As a control, the reference compound prepared in Embodiment 4 was placed under a light-emitting diode lamp for irradiation, the irradiation condition was 640 nm, 10 mW/cm^2, and the UV-visible absorption spectrum and the emission spectrum of the reference compound were recorded during irradiation.

Data set [5] has as its system HeLa human cervical cancer cells. Nature of the data set: Detection of cellular phototoxicity (CCK-8 cell viability). The following applies: 700 nm LED 2.5 mW/cm^2 for 10 min. Type of data set: cell-based. Here is the method: The cells used in the experiment were HeLa human cervical cancer cells. Cell culture was performed in a DMEM complete culture medium (purchased from Genye, 500 mL) supplemented with 10% inactivated fetal bovine serum (purchased from Shuohua, 500 mL) with 1% penicillin-streptomycin (purchased from Corning, 100 mL) at a temperature of 37° C. and an atmosphere of 5% carbon dioxide.
Sub-cultured Hela cells were digested by trypsin and dispersed in the culture medium at an appropriate concentration. […]
100 μL of PBS buffer was added to each well, and an irradiation condition was a 700 nm light-emitting diode lamp of 2.5 mW/cm^2 for 10 min. […] During this process, a monosodium salt of 2-(2-methoxy-4-nitrophenyl)-3-(4-nitrophenyl)-5-(2,4-disulfonate phenyl)-2H-tetrazolium (WST-8) in the CCK-8 reagent with an electron coupling reagent may be reduced to a water-soluble yellow formazan product by living cells, which causes an absorbance of the solution at 450 nm to vary, and values of variation may be proportional to a count of living cells. The variation of the absorbance at 450 nm of each well was measured using an enzyme labeling apparatus, and a cell viability at each incubation concentration was calculated according to a formula: […]

Data set [6] has the same test system. Nature of the data set: Medicine phototherapy at an animal level (subcutaneous tumor model). Type of data set: in vivo, BALB/C nude mice. The settings on record: 0.2 mg/kg in situ injection, 2 weeks. Here is the method: All animal experiments in the in vivo experiments were performed in strict compliance with the Chinese regulations for animal experiments using BALB/C nude mice, 5 weeks of age of the mouse, male, and a range of 16 g-25 g of body weight. Each mouse was subcutaneously inoculated with 100 uL of HeLa human cervical cancer cells in the right hind limb (5×10^6) to construct the tumor model, and the experiments were performed two weeks later.
Mice were randomly grouped by number, and the experiment was divided into an irradiation control group (including irradiation), a dark control group (including a target product; and a degradation product), and an experimental group (including target product+irradiation; and degradation product+irradiation), with six mice in each group. The dark control and experimental groups were administered by in situ injection, respectively: a dose of 0.2 mg/kg was administered, and 20 μL (0.2 mg/ml) of PBS solution of the target product or degradation product was injected in situ. After 30 min, the irradiation control and experimental groups were irradiated, and an irradiation condition was a 700 nm light-emitting diode lamp of 100 mW/cm^2, and 10 min of irradiation per mouse. The six mice were not given a light-avoidance process after therapy and were put into rearing cages to continue to feed, and every two days, a tumor volume was measured by vernier calipers and the body weight was weighed. The mice were therapized for 2 weeks.

Data set [7] can be described thus: Photosensitization side effects of a photosensitizer at an animal level. Type of data set: in vivo, BALB/C nude mice. The settings on record: 0.2 mg/kg subcutaneous, site irradiated 10 min (700 nm target product, 640 nm reference compound, 100 mW/cm^2), then simulated natural light 10 mW/cm^2 for 1 hour. The procedure: All animal experiments in the in vivo experiments were performed in strict compliance with the Chinese regulations for animal experiments, using BALB/C nude mice, 5 weeks of age of the mouse, male, and a range of 16 g-25 g of body weight.
The mice were randomly grouped by number, and the experiment was divided into a target product group, a reference compound group, and an irradiation control group, with 3 mice in each group. Each of the mice was injected subcutaneously into an abdomen with 20 μL (0.2 mg/mL) of the target product, reference compound solution, or PBS solution, and an administered dose was 0.2 mg/kg. After the injection, a site of administration was irradiated, an irradiation condition of the target product was a 700 nm light-emitting diode lamp, and an irradiation condition of the reference compound was a 640 nm light-emitting diode lamp of 100 mW/cm^2, each of the mice was irradiated for 10 min, and no processing was performed in the irradiation control group. The state of the mouse was observed and a body temperature of the mouse was recorded with a thermal imager. Further, the three groups of mice were exposed to a simulated natural light of 10 mW/cm^2 and irradiated for 1 hour.

Turning to `C[N+](C)(C)c1c(F)c(F)c(C2=C3C(=O)OC4=[N+]3[Zn]35[n]6c2ccc6-c2c(oc6c(F)c([N+](C)(C)C)c(F)c(F)c26)[N+]3=c2oc3c(F)c([N+](C)(C)C)c(F)c(F)c3c2=c2ccc([n]25)=C4c2c(F)c(F)c([N+](C)(C)C)c(F)c2F)c(F)c1F` (stereo not drawn) [target product], the fluorescence spectrum region entry in data set [1] was “in the near-infrared region”. Besides, in data set [2], the “generation of superoxide anion free radicals” value is given as “ability to generate the superoxide anion free radicals under irradiation”. Besides, in data set [3], the “generation of singlet oxygen” value was “ability to produce singlet oxygen under irradiation”. In data set [4] (700 nm LED 2.5 mW/cm^2 for 0 min-10 min, FIG. 15), the “photodegradation process monitored by HPLC” value is “able to self-degrade and gradually be converted into the degradation product”. In addition, in data set [4] (700 nm LED 10 mW/cm^2, FIGS. 29-30), the “photodegradation in solution (absorption and emission spectra during irradiation)” value is given as “degraded under irradiation”. Moreover, the “degradation under irradiation (characteristic absorption at 440 nm and 710 nm)” value in data set [4] (700 nm LED 10 mW/cm^2 for 2 min-4 min, FIG. 13) is reported as “degraded under irradiation”. Besides, the “photodegradation rate as a function of irradiation intensity” value in data set [4] (FIG. 14) is “accelerated with the increase in irradiation intensity”. Further, the cellular phototoxicity entry in data set [5] (0 μM-4 μM, FIGS. 16-17) was “relatively strong cellular phototoxicity under irradiation”. Moreover, the IC50 in data set [5] (Homo sapiens, 24 h incubation, CCK-8, read-out: half-lethal concentration IC50) was determined as 1000 nM. Moreover, the “body weight, with irradiation” value in data set [6] (700 nm LED 100 mW/cm^2 10 min) is reported as “no significant weight loss”. In addition, the “tumor growth (tumor volume), with irradiation” value in data set [6] (700 nm LED 100 mW/cm^2 10 min single irradiation) was “effectively inhibited a growth of a subcutaneous tumor”. In data set [6] (no irradiation), the “body weight, dark control” value is listed as “no significant weight loss” and the “tumor growth (tumor volume), dark control” value is given as “grows rapidly”. Besides, in data set [7], the “body temperature after natural light (thermal imager)” value was “no significant variation” and the “reactions / photosensitization side effects after natural light” value was “did not exhibit abnormal reactions”.
